What was measured:
[1] = system: patients diagnosed with primary open angle glaucoma; test: Trial 2: intraocular pressure reduction (Goldmann applanation tonometry), AcuStream versus standard eye dropper; format: in vivo, human
Method: Trial 2 compared the efficacy (dose volume equivalence) of 0.005% w/v latanoprost for intraocular pressure reduction when delivered via AcuStream™ (pre-trial calibration volume=9.2 μl) versus the standard eye dropper for topical drug delivery (approximate volume=30 μl).
Patients included in Trial 2 have previously been diagnosed with primary open angle glaucoma on the basis of intraocular pressure and visual field testing, fundus examination or optical coherence tomography (OCT) data and are currently on prostaglandin analog medical therapy. Patients with corneal abnormalities that would interfere with accurate IOP measurements with applanation tonometry, use of an oral or topical ophthalmic steroids within the past 14 days from screening date, any active ocular surface or anterior segment disease, or progressive field loss during the past year were excluded from the study. Thirteen men and five women participated in the trial. […]
After performing slit lamp examinations on each patient to verify eligibility and obtaining informed consent, intraocular pressure (IOP) was measured by a sole experienced examiner who was blind to the randomized conditions. […]
Latanoprost solution was administered by a sole ophthalmologist to both eyes of each patient, based on the pre-determined randomized condition.

[2] = system: eye of subjects; test: Presbyopia: pupil diameter after self-administered pilocarpine micro-dose; format: in vivo, human
Method: A 10 μl micro-dose of a 1% pilocarpine solution was self-administered using an electromagnetic actuated fluid delivery device, e.g., as described above, by three subjects to their own eye. The age range of the subjects was 52 years to 68 years, and all subjects were male. The pilocarpine micro-dose was self-administered by the subjects.
Baseline, pre-dose values of pupil diameter and near visual acuity in both eyes prior to dosing was measured for all subjects, and then following the baseline measurements, the subjects were dosed in only one eye (the eye with the poorer visual acuity) with the micro-dose pilocarpine solution. Approximately 45 to 60 minutes after dosing, pupil diameter and near visual acuity were again tested. Near visual acuity was measured using a Snellen card at a distance of 40 cm. A tabulation of results is given below in Table A.

Structure (SMILES) | difference in IOP reduction between AcuStream and standard dropper groups ([1]; Wilcoxon Ranked Sum test, p=0.3447) | post-instillation IOP of a single patient outlier (OD) ([1]; control group (standard eye dropper), baseline IOP 30 mm Hg) [mm Hg] | mean reduction in pupil diameter ([2]; dosed eye, 10 μl micro-dose of 1% solution, all 3 subjects) [mm] | miotic effect in the non-dosed eye ([2]; non-dosed contralateral eye)
CC(C)OC(=O)CCC/C=C\C[C@@H]1[C@@H](CC[C@@H](O)CCc2ccccc2)[C@H](O)C[C@@H]1O [latanoprost] | no statistically significant differences | 17 |  | 
CC[C@@H]1C(=O)OC[C@@H]1Cc1cncn1C [pilocarpine] |  |  | 0.70 | no miotic effect
